Reference: US10745394B2, “8-azabicyclo[3.2.1]octane compounds as mu opioid receptor antagonists” (priority 2006, dated 2020)
Where two headings read alike, the source gives them in different places.

Experiments:
[1] = biological target: T1, human mu opioid receptor (Homo sapiens, UniProt P35372); assay: Radioligand binding assay, human mu opioid receptor; conditions: displacement of [3H]-Diprenorphine
T1 construct: expressed in transfected cells; host or cells: CHO-K1

[2] = biological target: T1, human mu opioid receptor; assay: Human mu GTP-Eu nucleotide exchange assay (agonist mediated activation) in CHO-K1 membranes; assay type: biochemical; conditions: bound GTP-Eu relative to DAMGO (IA=100); read-out: intrinsic activity (IA)
Method: a. Mu Opioid Receptor Membrane Preparation:
Protein concentration was determined using a Bio-Rad Bradford Protein Assay kit. Membranes were stored in frozen aliquots at −80° C., until required. Lyophilized GTP-Eu and GDP were diluted to 10 μM and 2 mM, respectively, in double distilled H2O then mixed and permitted to sit at room temperature for 30 minutes prior to transfer to individual aliquots samples for storage at −20° C.
b. Human Mu GTP-Eu Nucleotide Exchange Assay
GTP-Eu nucleotide exchange assays were performed using the DELPHIA GTP-binding kit (Perkin/Elmer) in AcroWell 96 well filter plates according to the manufacturer's specifications. […] Test compounds were received as 10 mM stock solutions in DMSO, diluted to 400 μM into Assay Buffer containing 0.1% BSA, and serial (1:5) dilutions then made to generate ten concentrations of compound ranging from 40 pM^− 80 μM-GDP and GTP-Eu were diluted to 4 μM and 40 nM, respectively, in Assay Buffer. The assay was performed in a total volume of 100 μL containing 5 μg of membrane protein, test compound ranging from 10 pM-20 μM), 1 μM GDP, and 10 nM GTP-Eu diluted in 10 mM MgCl2, 50 mM NaCl, and 0.0125% BSA, (final assay concentrations). A DAMGO (Tyr-D-Ala-Gly-(methyl)Phe-Gly-ol) concentration-response curve (ranging from 12.8 pM-1 μM) was included on every plate.
Assay plates were prepared immediately prior to assay following the addition of 25 μL of Assay Buffer, 25 μL of test compound, and 25 μL GDP and GTP-Eu. The assay was initiated by the addition of 25 μL membrane protein and allowed to incubate for 30 minutes. The assay plates were then filtered with a Waters vacuum manifold connected to the house vacuum regulated to 10-2 in. Hg and washed with room temperature GTP Wash Solution ([…]). The bottoms of the plates were blotted to remove excess liquid. The plates were then immediately read to determine the amount of bound GTP-Eu by measuring Time Resolved Fluorescence (TRF) on a Packard Fusion Plate ReaderVehicle: DMSO not to exceed 1% final assay concentration.
The amount of bound GTP-Eu is proportional to the degree of activation of the mu opioid receptors by the test compound.

[3] = test system: morphine-induced analgesia / morphine-induced delayed gastrointestinal transit
[4] = following subcutaneous administration

T1 sequence (P35372 whole entry): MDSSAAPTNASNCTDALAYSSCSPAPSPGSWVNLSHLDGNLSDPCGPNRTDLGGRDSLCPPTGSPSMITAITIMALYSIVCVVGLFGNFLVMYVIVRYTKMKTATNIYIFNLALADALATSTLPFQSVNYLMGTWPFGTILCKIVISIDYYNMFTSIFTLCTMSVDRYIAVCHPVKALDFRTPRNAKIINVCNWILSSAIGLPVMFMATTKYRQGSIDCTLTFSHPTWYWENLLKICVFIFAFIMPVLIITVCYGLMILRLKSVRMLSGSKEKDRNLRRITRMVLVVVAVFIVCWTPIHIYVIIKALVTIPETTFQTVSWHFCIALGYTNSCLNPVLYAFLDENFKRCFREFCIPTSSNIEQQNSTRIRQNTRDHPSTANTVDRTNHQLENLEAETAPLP

Row | SMILES | pKi [1] | Emax [2] [%] | peripheral selectivity (hotplate ID50 / intestinal transit ID50) ([3]; following oral administration) | peripheral selectivity (hotplate ID50 / intestinal transit ID50) [3, 4]
1 | NC(=O)c1cccc([C@H]2C[C@H]3CC[C@@H](C2)N3CCN(Cc2ccccc2)C(=O)CO)c1 [Example 46B, 3-endo-(8-{2-[benzyl-(2-hydroxyacetyl)-amino]ethyl}-8-azabicyclo[3.2.1]oct-3-yl)benzamide] | 10.0 | -3 |  | 
2 | NC(=O)c1cccc([C@H]2C[C@H]3CC[C@@H](C2)N3CCN(CCc2ccccc2)C(=O)CO)c1 [Example 59, 3-endo-(8-{2-[(2-hydroxyacetyl)phenethylamino]-ethyl}-8-azabicyclo[3.2.1]oct-3-yl)benzamide] |  | -2 |  | 
3 | NC(=O)c1cccc([C@H]2C[C@H]3CC[C@@H](C2)N3CCN(CC2CCC(F)(F)CC2)C(=O)CO)c1 [Example 63, 3-endo-(8-{2-[(4,4-difluorocyclohexylmethyl)-(2-hydroxyacetyl)amino]ethyl}-8-azabicyclo[3.2.1]oct-3-yl)benzamide] |  |  | 22 | 22
4 | NC(=O)c1cccc([C@H]2C[C@H]3CC[C@@H](C2)N3CCN(CC2CCCCC2)C(=O)[C@@H](O)CO)c1 [Example 58, 3-endo-(8-{2-[cyclohexylmethyl-((S)-2,3-dihydroxy-propionyl)amino]ethyl}-8-aza-bicyclo[3.2.1]oct-3-yl)benzamide] | 9.9 | -3 | 35 | 300
5 | NC(=O)c1cccc([C@H]2C[C@H]3CC[C@@H](C2)N3CCN(CC2CCCCC2)C(=O)CO)c1 [Example 48B, 3-endo-(8-{2-[cyclohexylmethyl-(2-hydroxyacetyl)-amino]-ethyl}-8-azabicyclo[3.2.1]oct-3-yl)benzamide] |  |  | 42 | 30
6 | CS(=O)(=O)CC(=O)N(CCc1ccccc1)CCN1[C@@H]2CC[C@H]1C[C@@H](c1cccc(C(N)=O)c1)C2 [Example 136, 3-endo-(8-{2-[(2-methanesulfonylacetyl)phenethylamino]ethyl}-8-azabicyclo[3.2.1]oct-3-yl)-benzamide] | 9.8 | 14 |  | 
7 | O=C(CO)N(CCN1[C@@H]2CC[C@H]1C[C@@H](c1cccc(O)c1)C2)Cc1ccccc1 [Example 1, N-benzyl-2-hydroxy-N-{2-[3-endo-(3-hydroxyphenyl)-8-azabicyclo[3.2.1]oct-8-yl]ethyl}acetamide] | 10.1 | 6 |  | 
